Results on one compound are retold here after ChEMBL document CHEMBL1126357, “Synthesis of sodium salt of ortho-(difluoromethyl)phenyl--ketoside of N-acetylneuraminic acid : a mechanism-based inhibitor of Clostridium perfringens neuraminidase” (Bioorg Med Chem Lett, 1992).

This test can be described thus: Ki apparent against Clostridium perfringens neuraminidase was determined. To be noted: read-out: Ki app.

The structures appear in SMILES notation.

Consider `CC(=O)NC1C(O)CC(Oc2ccccc2C(F)F)(C(=O)O)OC1[C@H](O)[C@H](O)CO` (stereo partly specified), for which the Ki was 150 µM.
